The subject of one data set is pSTAT1. In words: Phosphorylation inhibition of STAT in human whole blood (IFN-alpha stimulated, flow cytometry). Type of data set: cell-based. Conditions: T-cell, 20 min, IFN-alpha stimulation 20 mins, CD3 T cells, read-out: pSTAT1 inhibition in hWB (IC50). The gist of the method:
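Fresh human whole blood stimulated 20 min with human universal type I IFN-alpha, then fixed, permeabilised and stained for CD3 and pSTAT1 (Y701). pSTAT1 in T cells read by flow cytometry; IC50 from 4-parameter logistic fit.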
In general terms: Flow cytometry measures light scatter and fluorescence of single cells or particles in a stream.

The test system of data set [1] is IFNa pSTAT1. As to the kind of experiment: Phosphorylation of STAT1 inhibition in HMC3 cells with HTRF assay. The format is cell-based. Conditions: Homo sapiens, HMC3 microglia cells, 50ng/mL hINFα 1 hour, read-out: HTRF_HMC3 IC 50 (IFNa pSTAT1). As to the method:
Seeding HMC3 cells into 96-well plate and incubate overnight. Pre-stimulation with recombinant human IFNα (Sino biological, H08Y), treat cells with compound with different concentration for 1hr. After compound treatment, stimulate cells with 50ng/mL hINFα for another 1 hour (for CCF-STTG1 cells IFNα induction time is 30 mins). After compound treatment and cytokine stimulation, dump old medium and lyse cells with supplemented lysis buffer provided by the HTRF kit (Revvity, 63ADK026PEG) for 30 min at room temperature under shaking. After homogenization by pipetting up and down, transfer 16 µL of cell lysate from the 96-well cell-culture plate to a small volume white 384-well plate, and then add 4 µL of pre-mixed two ready-to-use antibody working solution into each wells. Cover the plate with a plate sealer and incubate it overnight at room temperature. Read the fluorescence emission at two different wavelengths (665nm and 620nm) on microplate reader (Molecular Device, SpectraMax i3X). Collect data and analyzed with GraphPad Prism.
On the technique in general: In TR-FRET formats the signal depends on donor and acceptor labels being close together.

In the next data set the target is T1, JAK1-JH2 domain (Homo sapiens, UniProt P23458).
T1 construct: JAK1-JH2 domain or TYK2-JH2 domain enzyme in assay buffer
In words: Binding activity test for JH2 domain of JAK1 (Tb-antibody/tracer FRET). Conditions: JH2 domain enzyme; 60 min at 25°C, then 4°C overnight; read-out: JAK1 JH2 Binding IC50. The method in brief:
(§1)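 IC50 values (nM) come from TR-FRET readings taken after a 25°C incubation followed by overnight at 4°C. Each well held JH2 domain protein, Tb-antibody, tracer and test compound titrated in 11 threefold steps, with DMSO high and low controls.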

Data set [2] has as its system Ba/F3-FL-TYK2-P760L cells. In words: Anti-proliferative assay in engineered Ba/F3 cells (Cell-Titer Glo, 72 h). Type of data set: cell-based. Conditions: 72 h compound treatment, concentration that causes 50% growth inhibition, read-out: Baf3-FL-T2P760L. The method in brief:
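IC50 from luminescent ATP viability after 72 h compound exposure (37 °C, 5% CO2), % inhibition normalised to DMSO-treated cells minus medium blank. IL-3-free Ba/F3-FL-TYK2-P760L (Tel-JAK fusion) cells in 10% FBS RPMI-1640 received 9 three-fold doses, top 20 µM, 0.1% DMSO.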

A further data set deals with T2, TYK2-JH2 domain (Homo sapiens, UniProt P29597).
T2 construct: JAK1-JH2 domain or TYK2-JH2 domain enzyme in assay buffer
In words: Binding activity test for JH2 domain of TYK2 (Tb-antibody/tracer FRET). The note with it: for IC50: JH2 domain enzyme, 60 min at 25°C, then 4°C overnight, read-out: TYK2 JH2 Binding IC50; for JAK1/TYK2 selectivity: ratio of JAK1 JH2 to TYK2 JH2 binding IC50. The gist of the method: as §1

Data set [3] concerns IFNa pSTAT1. In words: Phosphorylation of STAT1 inhibition in HMC3 cells by Jess. Type of data set: cell-based. The note with it: Homo sapiens; HMC3 microglia cells, 50ng/mL hINFα 1 hour, Jess western; read-out: Jess_HMC3 IC50 (IFNa pSTAT1). As to the method:
Seeding HMC3 cells into 12-well plate and incubate overnight. Pre-stimulation with recombinant human IFNα (Sino biological, H08Y), treat cells with compound with different concentration for 1hr. After compound treatment, stimulate HMC3 cells with 50ng/mL hINFα for another 1 hour (for CCF-STTG1 cells IFNα induction time is 30 mins). And then wash cells with DPBS once gently and lyse cells with pre-cooled RIPA buffer (Sigma, R0278-500ML) for 30min on ice to harvest cells. Centrifuge cell lysate for 20 mins at 12000rpm with freezer centrifuge (Thermo Scientific, Heraeus Fresco 21) to extract protein. Prepare samples with Jess Simple Wes kit (SM-WO04) and then run western blot on Jess simple western system (Protein simple, JS-4631). Collect data and analyzed with GraphPad Prism.

A short description of data set [4]: Brain pharmacokinetic studies in rats. The format is in vivo, Sprague-Dawley rats. As to the method:
Pharmacokinetic profiles of test articles were evaluated in fasted Sprague-Dawley rats. Different kinds of formulations were designed to ensure test articles fully dissolved and wouldn't precipitate in 1:10 SGF or FaSSIF dilution. Typically, Rats were dosed with 3 mg/kg and 5 mg/kg by intravenous injection and oral gavage, respectively. The animal was restrained manually at the designated time points, approximately 150 µL of blood sample was collected via jugular vein for serial bleeding into K2EDTA tubes. The blood samples were maintained in wet ice first and centrifuged to obtain plasma (2000g, 4°C, 5 min) within 30 minutes post sampling. Anesthetizing the rat with the Isoflurane vaporizer to 2%~3% and place its back on the operation table. Spread the animal limbs and pin the limbs on the operation table. Make a cut along the sternum about 4cm long, low enough to expose the sternum's end. Expose the heart and use a 25-gauge needle connected with a 20 mL syringe filled with 20 mL of cold saline to pierce the left ventricle. Maintain the placement of the needle, and slowly push the syringe plunger to wash the brain with saline. The perfusion will be finished within about 2 min and then take the brain out of the body carefully without damaging the tissue. Dry the tissue on filtrate paper, which should be placed on ice, and then weigh the brain tissue and store at -70 °C and analyzed by LC/MS/MS for quantification. PK parameter values, including, but not necessarily limited to, the maximum plasma concentrations (Cmax), and the area under the plasma concentration vs. time curve (AUC) from time zero to 24-hour (AUC0-24h) were determined using WinNonlin program. Table 13. Systemic Pharmacokinetic Parameters in Sprague-Dawley Rats

Like-named read-outs stand apart in the source and are kept apart here.

For orientation: half-life means the time needed for the level to fall by half in the phase considered. Lower therefore signals fast loss.

T1 sequence (P23458 583-855 limits assumed): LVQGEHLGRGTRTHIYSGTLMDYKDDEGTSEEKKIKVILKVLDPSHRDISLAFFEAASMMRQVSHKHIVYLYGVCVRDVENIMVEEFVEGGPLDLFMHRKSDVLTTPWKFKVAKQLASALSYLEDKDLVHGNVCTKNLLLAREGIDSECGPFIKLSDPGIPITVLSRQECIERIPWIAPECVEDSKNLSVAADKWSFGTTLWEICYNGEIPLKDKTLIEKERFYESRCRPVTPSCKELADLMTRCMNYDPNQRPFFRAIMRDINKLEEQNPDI
T2 sequence (P29597 589-875 limits assumed): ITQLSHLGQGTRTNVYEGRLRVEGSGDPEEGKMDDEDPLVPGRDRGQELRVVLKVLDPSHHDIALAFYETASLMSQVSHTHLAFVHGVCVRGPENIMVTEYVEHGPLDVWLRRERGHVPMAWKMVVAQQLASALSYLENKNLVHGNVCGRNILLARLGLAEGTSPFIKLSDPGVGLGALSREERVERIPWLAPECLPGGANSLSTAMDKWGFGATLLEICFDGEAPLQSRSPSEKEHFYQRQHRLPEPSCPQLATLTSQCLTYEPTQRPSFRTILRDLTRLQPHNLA

Consider `CCn1nc(Nc2cc(NC(=O)C3CC3)ncc2C(=O)OC)c2c(OC)c(C(O)C(F)(F)F)ccc21` (single isomer, unassigned) [Example 70A, Methyl (S*)-6-(cyclopropanecarboxamido)-4-((1-ethyl-4-methoxy-5-(2,2,2-trifluoro-1-hydroxyethyl)-1H-indazol-3-yl)amino)nicotinate], for which the IC50 is 43.7 nM with pSTAT1; less than 0.061 nM in the data set with IFNa pSTAT1 [1]; 21.8 nM on JAK1-JH2 domain; 2.35 nM in data set [2] (Mus musculus, BaF3, 72 h); 0.15 nM at TYK2-JH2 domain. For the same compound, the JAK1/TYK2 selectivity on TYK2-JH2 domain is reported as 145.12.
With `CCC(F)(F)c1cnc(NC(=O)C2CC2)cc1Nc1nn(C)c2ccc(C(O)C(F)(F)F)c(OC)c12` (single isomer, unassigned) [Example 193A, (S*)-N-(5-(1,1-Difluoropropyl)-4-((4-methoxy-1-methyl-5-(2,2,2-trifluoro-1-hydroxyethyl)-1H-indazol-3-yl)amino)pyridin-2-yl)cyclopropanecarboxamide], the IC50 with IFNa pSTAT1 [1] worked out at 0.821 nM; in the data set on IFNa pSTAT1 [3] it was 4.28 nM; in data set [2], 0.395 nM; on TYK2-JH2 domain, 0.417 nM.
For `[2H]C([2H])([2H])CC(=O)c1cnc(NC(=O)C2CC2)cc1Nc1nn(C)c2ccc([C@H](O)C(F)(F)F)c(OC)c12` [Example 54A, (S)-N-(4-((4-methoxy-1-methyl-5-(2,2,2-trifluoro-1-hydroxyethyl)-1H-indazol-3-yl)amino)-5-(propanoyl-3,3,3-d3)pyridin-2-yl)cyclopropanecarboxamide], the IC50 with pSTAT1 was 10.8 nM; in the data set on IFNa pSTAT1 [1], less than 0.061 nM; on JAK1-JH2 domain, 3.82 nM; in data set [2] (Mus musculus, BaF3, 72 h), 0.577 nM; at TYK2-JH2 domain it was 0.118 nM. In addition, the half-life in data set [4] (Sprague-Dawley, rat, brain, rats, iv, 2 mg/kg, solution) was 1.64 h; in data set [4] (Sprague-Dawley, rat, systemic (plasma), rats, iv, 2 mg/kg, solution) it was 1.7 h. Besides, the Kp in data set [4] (Sprague-Dawley, rat, brain, rats, iv, 2 mg/kg, solution, read-out: Brain AUC/Systemic AUC) was 0.18. Further, the AUC came out at 1060 ng·h/mL in data set [4] (Sprague-Dawley, rat, systemic (plasma), rats, iv, 2 mg/kg, solution, read-out: AUC) and 188 ng·h/g in data set [4] (brain, rats, iv, 2 mg/kg, solution). For the same compound, the “brain exposure in Rats” value in data set [4] (result in words) is “good brain exposure”. Also, the JAK1/TYK2 selectivity at TYK2-JH2 domain was 32.37.
For `COC(=O)c1cnc(NC(=O)C2CC2)cc1Nc1nn(C)c2ccc(C(OC)C(F)F)c(OC)c12` (stereo not shown) [Example 68, Methyl 6-(cyclopropanecarboxamido)-4-((5-(2,2-difluoro-1-methoxyethyl)-4-methoxy-1-methyl-1H-indazol-3-yl)amino)nicotinate], the IC50 was less than 0.061 nM in the data set on IFNa pSTAT1 [1]; 16.3 nM at JAK1-JH2 domain; 3.17 nM in the data set on IFNa pSTAT1 [3]; 3.6 nM in data set [2] (Mus musculus, BaF3, 72 h); 0.14 nM at TYK2-JH2 domain. Besides, the JAK1/TYK2 selectivity on TYK2-JH2 domain came to 116.36.
With `COCC(OC)c1ccc2c(c(Nc3cc(NC(=O)C4CC4)ncc3C(=O)OC)nn2C)c1OC` (stereo not shown) [Example 159, Methyl 6-(cyclopropanecarbonylamino)-4-[[5-(1,2-dimethoxyethyl)-4-methoxy-1-methyl-indazol-3-yl]amino]pyridine-3-carboxylate], the IC50 was determined as 129 nM in the data set on pSTAT1; 0.082 nM with IFNa pSTAT1 [1]; 8.21 nM on JAK1-JH2 domain; 6.29 nM in data set [2] (Mus musculus, BaF3, 72 h); 0.203 nM on TYK2-JH2 domain. For the same compound, the JAK1/TYK2 selectivity at TYK2-JH2 domain came to 40.45.

Source of the values: patent EP4813463A2, “TYK2 INHIBITORS AND COMPOSITIONS AND METHODS THEREOF” (Lynk Pharmaceuticals Co. Ltd., priority 2023, dated 2024).
